Results as given in US9358305B2, “Targeted carriers for drug delivery across the gastrointestinal epithelium” (University of Maryland, College Park, priority 2009, dated 2016).
Ends that are not written are not given here.

Assays:
ICAM-1 on HUVEC = experiment: Leukocyte transmigration across TNF-activated HUVEC monolayer in transwell; assay type: cell-based, human; conditions: compared to albumin, scrambled peptide and LB2 controls
Procedure: Human endothelial cells (human umbilical vein endothelial cells (HUVECs)) were grown until formation of a continuous confluent monolayer in a transwell filter located between upper and lower chambers. The cells were then treated with tumor necrosis factor alpha to mimic inflammatory activation of endothelial cells and SDF1a was added to the lower chamber to generate a gradient to attract white blood cells, as during inflammation. Lymphocytes isolated from human peripheral blood were activated with interleukin 2 and added to the upper chamber above endothelial cells in the absence (control) or presence of ICAM-1-targeting peptides A1, B7, B8, B9, B10, or D6. Albumin or a peptide of scrambled sequence were used as negative controls which should not block inflammatory transmigration of leukocytes across endothelial cells. The anti-ICAM antibody LB2, which is known to block leukocyte adhesion to ICAM-1, was used as a positive control which should block such transmigration.
Leukocytes which transmigrated to the lower chamber below endothelial cells were counted to assess their transmigration. FIG. 9 provides a graph of the resulting leukocyte transmigration as a percentage of the control. The peptides annotated with an asterisk in FIG. 9 indicate that the peptide was effective in statistically significant blockage of leukocyte transmigration across endothelial cells.

HUVEC = experiment: Lysosomal transport of peptide-coated carriers in HUVEC; assay type: cell-based, human; conditions: for Binding, internalization and lysosomal transport of carriers: 37° C., co-localization with dextran-labeled lysosomes, carriers coated with the peptide
Procedure: (§1) (A) The peptide γ3 was absorbed on the surface of 100 nm FITC-labeled polystyrene carriers and the resulting products were incubated for 15 min on nitrocellulose-immobilized albumin vs human or mouse ICAM-1 chimeras containing ICAM-1-Ig domains 1 and 2 fused to human Fc sequence. The membranes were washed and analyzed by fluorescence microscopy to quantify the number of carriers bound per area. Data are expressed relative to non-specific binding of γ3 carriers to albumin controls (dotted line). A comparison to binding of anti-ICAM carriers is provided (dashed line). (B) Binding of FITC-labeled polystyrene carriers coated by absorption with the peptide γ3 and recombinant acid sphingomyelinase (ASM, a therapeutic enzyme) to activated HUVEC (bars) vs ICAM-1-negative 293 cells (dotted line) was quantified by fluorescence microscopy after 1 h incubation at 37° C., in the absence or presence of excess γ3, anti-ICAM, γ3 scramble peptide, or mannose 6 phosphate (M6P). Data is shown relative to HUVEC binding of γ3/ASM carriers (134±11 particles/cell). (C) HUVEC lysosomes were labeled for 2 h with Texas-red dextran at 37° C. Cells were then incubated for 30 min at 37° C. with FITC-labeled γ3/ASM carriers, non-bound carriers were washed, and incubation was continued up to 1, 2, or 3 h. Co-localization of FITC carriers with Texas-red dextran-lysosomes was quantified by fluorescence microscopy. (D) Comparison of lysosomal transport of 100 nm FITC-labeled polystyrene carriers coated with either ICAM-1-targeting peptide γ3 vs its derivatives 2γ3 and 3γ3. (E) Activated HUVEC were incubated for 30 min at 37° C. in the presence of FITC-labeled 2γ3 polystyrene carriers after 15 min pre-treatment with 3 mM amiloride to block ICAM-1-mediated endocytosis, or 0.1 μM PMA to activate PKC and promote ICAM-1-mediated endocytosis. Co-localization of FITC 2γ3 carriers with Texas red dextran-labeled lysosomes was assessed by microscopy 3 h post-internalization. Mean±SEM; n=2 assays. **p<0.005, ***p<0.001, by student's t test.

mouse endothelial cells = experiment: Endocytosis of peptide phages by mouse endothelial cells; assay type: cell-based; conditions: for Internalization of phage viruses by endothelial cells: phages expressing 5 copies of the peptide, 37° C., 1 h
From the text: (§2) (A) ELISA measurement of the binding of 7-mer peptide expressing phage library to immobilized recombinant ICAM-1 (consisting of the two most membrane-distal Ig domains—1 and 2—of mouse ICAM-1 fused to human Fc or hFc), versus their binding to control hFc. (B) Relative specificity and (C) relative affinity of ICAM-1-targeting peptide phages, determined by ELISA from the experiment in (A). (D) Relative binding of phages expressing 7-mer peptides to native ICAM-1 expressed on the surface of HV5 mouse endothelial cells, either control or activated with TNFalpha to mimic a disease phenotype. Binding was determined by microscopy using a fluorescently-labeled antibody to the phage capsid. The line in the graph indicates the level of binding of A1 phage to 293 cells, which are voided of ICAM-1-expression. (E, F) Endocytosis (1 h, 37° C.) of phages expressing 7-mer peptides by control mouse endothelial cells (E) or mouse endothelial cells incubated in the presence of 3 mM amiloride (F) was estimated by microscopy after staining surface-located phages with a Texas red-labeled antibody to the viral capsid, following by cell permeabilization and staining of all (surface and internalized) phages using a FITC-labeled antibody to the viral capsid. (G) Binding of FITC-labeled anti-ICAM polystyrene nanocarriers to human endothelial cells was evaluated by fluorescence microscopy after incubation with cells in the absence (100% level) or presence of anti-ICAM antibody, ICAM-1-targeting synthetic peptides, or peptides with their scramble sequence (e.g., A1sc).

[1] = molecular target: T1, native ICAM-1 expressed by activated HUVEC (Homo sapiens, UniProt P05362); experiment: Binding of γ3/ASM carriers to activated HUVEC, with or without excess competitor; assay type: cell-based; conditions: 1 h, 37° C.
T1 construct: endogenous in cells
Procedure: as §1, with “Cells were then incubated for 30 min at 37° C. with FITC-labeled γ3/ASM carriers, non-bound carriers were washed, and incubation was continued up to 1, 2, or 3 h.” left out, “(D) Comparison of lysosomal transport of 100 nm FITC-labeled polystyrene carriers coated with either ICAM-1-targeting peptide γ3 vs its derivatives 2γ3 and 3γ3. (E) Activated HUVEC were incubated for 30 min at 37° C. in the presence of FITC-labeled 2γ3 polystyrene carriers after 15 min pre-treatment with 3 mM amiloride to block ICAM-1-mediated endocytosis, or 0.1 μM PMA to activate PKC and promote ICAM-1-mediated endocytosis.” left out, “Mean±SEM; n=2 assays. **p<0.005, ***p<0.001, by student's t test.” left out

Caco-2 monolayers = experiment: Transport of 125I-labelled carriers across Caco-2 monolayers on permeable inserts; assay type: in vitro ADME, human
Caco-2 cells = experiment: Endocytosis of anti-ICAM carriers by Caco-2 cells; assay type: cell-based, human; conditions: TNF-α-treated Caco-2, 1 h, 37° C.
Procedure: Furthermore the ability of anti-ICAM carriers to be endocytosed by Caco-2 cells was examined. FITC-labeled anti-ICAM carriers were first incubated with cells for 30 min to allow binding, then non-bound carriers were washed and cells were incubated for varying times to allow carrier uptake. After cell fixation, surface-bound carriers were stained with Texas Red secondary antibody. […] Data are shown as means±S.E.M. (n≧20). […] Internalization was highly efficient: approximately 90% of the carriers bound to cells were internalized, which represents ˜60 carriers per cell.
The mechanism of uptake for Caco-2 cells treated with amiloride, a known inhibitor of CAM-mediated endocytosis (Muro et al., 2003), was examined. TNF-α-treated Caco-2 cells were incubated with FITC-labeled anti-ICAM carriers in the presence or absence of amiloride (1 h, 37° C.), and surface-bound carriers were stained with TxR goat anti-mouse. […] Upper panels of FIG. 14A show total carriers associated to cells, whereas lower panels show the fraction of surface-bound, non-internalized carriers. (Magnification bar=10 μm.) The fluorescence microscopy images were analyzed for the ratio of internalized carriers to surface-bound carriers, expressed as % internalization and normalized to the control. (FIG. 14B; Data are shown as means±S.E.M. (n≧20). *, p<0.001 by Student's t test.)

[2] = molecular target: T2, ICAM-1 on human endothelial cells (Homo sapiens, UniProt P05362); experiment: Competition of binding of anti-ICAM nanocarriers to human endothelial cells by synthetic peptides; assay type: cell-based
T2 construct: endogenous in cells
From the text: as §2

[3] = molecular target: T3, ICAM-1 in the vascular endothelium (Mus musculus, UniProt P13597); experiment: Lodging of fibrin microemboli in the vasculature of mice; assay type: in vivo
T3 construct: from tissue
Procedure: C57Bl/6 mice were first injected intravenously with γ3 to block ICAM-1 in the vascular endothelium in organs. Alternatively, injections of saline or anti-ICAM were used as controls. Fifteen minutes later the mice were injected with fibrin clots (microemboli around 3-5 micrometer) generated in the lab by established procedures.
Following microemboli administration, the microemboli amounts were measured in a gamma counter and calculated as percent of injected dose in circulation or localization ratio (the percent injected dose/gram in an organ divided by percent injected dose/gram in blood). FIG. 10(A) is a graphical illustration of the amount of microemboli in circulation in blood, as evaluated at 1 min after injection and FIG. 10(B) is a graphical illustration of the amount of microemboli lodging in the vasculature of the kidneys and spleen at 15 min after injection.

ICAM-1 = molecular target: T4, ICAM-1 (Mus musculus, UniProt P13597); experiment: Lung uptake (30 min) of radiolabeled ASM vs anti-ICAM carriers injected iv in mice; assay type: in vivo; conditions: 30 min after iv injection
T4 construct: from tissue
Procedure: (A) Lung uptake (30 min) of ^125I-labeled anti-transferrin receptor (targeted to the clathrin route), anti-GM1 (anti-ganglioside GM1, targeted to caveoli), or anti-ICAM, injected intravenously in mice as free antibodies or absorbed on the surface of 100 nm polystyrene particles (prototype carrier final size=180 nm). Particles had ^125I-labeled IgG as a tracer. Dashed line=control unspecific IgG carriers. (B) Lung uptake (30 min) of radiolabeled acid sphingomyelinase, a recombinant enzyme which binds to mannose 6 phosphate (M6P) receptor, vs anti-ICAM polystyrene carriers in control C57Bl/6 mice vs diseased ASMKO mice. Data is normalized per gram due to larger lung size in ASMKO mice. […] […]. […] (E) FITC-labeled anti-ICAM carriers of diverse geometry (anti-ICAM polystyrene spheres from 0.1 to 5 μm or 0.1×1×3 μm elliptical disks, and polymorphous anti-ICAM conjugates formed by biotin-streptavidin crosslinking were incubated with TNFα activated human umbilical vein endothelial cells (HUVEC) for 1 h at 37° C. The cells were then washed and fixed, cell surface-located carriers were differentially stained with a texas red-conjugated secondary antibody, and the samples were analyzed by fluorescence microscopy to quantify the percent of carriers internalized by the cells. Data are mean±standard error of the mean for n≧4 mice or ≧20 cells. *p<0.05, **p<0.005, ***p<0.001 by student's t test.

T1 sequence (P05362 28-532): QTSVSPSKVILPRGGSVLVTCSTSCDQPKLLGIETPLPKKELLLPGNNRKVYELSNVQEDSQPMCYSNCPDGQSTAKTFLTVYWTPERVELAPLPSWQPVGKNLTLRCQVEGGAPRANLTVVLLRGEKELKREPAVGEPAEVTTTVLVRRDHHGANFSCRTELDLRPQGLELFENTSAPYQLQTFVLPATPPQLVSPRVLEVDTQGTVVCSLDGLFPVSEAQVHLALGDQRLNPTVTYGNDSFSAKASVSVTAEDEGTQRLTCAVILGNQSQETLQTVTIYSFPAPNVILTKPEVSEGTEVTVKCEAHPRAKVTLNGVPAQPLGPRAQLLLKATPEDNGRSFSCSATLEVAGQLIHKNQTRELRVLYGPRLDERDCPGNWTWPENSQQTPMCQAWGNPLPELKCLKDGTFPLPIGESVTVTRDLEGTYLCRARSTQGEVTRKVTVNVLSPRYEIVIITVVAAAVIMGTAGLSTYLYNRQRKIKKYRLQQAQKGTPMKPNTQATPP
T2 sequence (P05362 28-532): as above
T3 sequence (P13597 28-537): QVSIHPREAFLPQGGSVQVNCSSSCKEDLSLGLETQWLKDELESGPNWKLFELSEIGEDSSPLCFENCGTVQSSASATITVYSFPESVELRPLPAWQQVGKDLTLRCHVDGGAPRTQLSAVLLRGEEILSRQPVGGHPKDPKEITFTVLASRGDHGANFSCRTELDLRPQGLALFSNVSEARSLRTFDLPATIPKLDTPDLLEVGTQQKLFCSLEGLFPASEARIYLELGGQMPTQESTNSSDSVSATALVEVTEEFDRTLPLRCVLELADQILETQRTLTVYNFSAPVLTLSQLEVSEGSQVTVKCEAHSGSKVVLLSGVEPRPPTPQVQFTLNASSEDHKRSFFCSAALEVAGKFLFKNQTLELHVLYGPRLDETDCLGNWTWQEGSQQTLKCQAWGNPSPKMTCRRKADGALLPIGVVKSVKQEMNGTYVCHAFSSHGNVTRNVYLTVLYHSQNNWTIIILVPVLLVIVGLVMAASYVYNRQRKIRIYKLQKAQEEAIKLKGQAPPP
T4 sequence (P13597 28-537): as above

Molecule: YQATPLP (phage display-derived peptide B7) [also tested as phage clone]
- Leukocyte transmigration across endothelial cells (ICAM-1 on HUVEC): inhibit leukocyte transmigration

Molecule: NNQKIVNIKEKVAQIEA (fibrinogen-derived 2-gamma-3) [2γ3]
- Binding, internalization and lysosomal transport of carriers (HUVEC): similar

Molecule: YPFLPTA (phage display-derived peptide B10) [also tested as phage clone]
- Internalization of phage viruses by endothelial cells (mouse endothelial cells): not
- Leukocyte transmigration across endothelial cells (ICAM-1 on HUVEC): inhibit leukocyte transmigration

Molecule: O=C[C@@H](O)[C@@H](O)[C@H](O)[C@H](O)COP(=O)(O)O [mannose-6-phosphate, reference compound]
- Effect of excess free competitor in the media on targeting of γ3/ASM carriers to endothelial cells [1]: did not compete

Molecule: N=C(N)NC(=O)c1nc(Cl)c(N)nc1N [amiloride, reference compound]
- Effect of modulator on endocytic transport of peptide carriers (HUVEC; 3 mM amiloride or 0.1 μM PMA pre-treatment): inhibited
- inhibition at 3000 µM (mouse endothelial cells; Mus musculus, Endothelial cell, phages A1, B7, B9, D6, 3 mM amiloride, read-out: Inhibition of phage internalization by amiloride): 41 to 59%
- Reduction of transport of 125I-anti-ICAM carriers by amiloride (Caco-2 monolayers; 3 h): about 50%
- Uptake of anti-ICAM carriers in presence of amiloride (Caco-2 cells): 20 % of the control value

Molecule: GSLLSAA [B8, GSLLSAA]
- Internalization of phage viruses by endothelial cells (mouse endothelial cells): not
- Inhibition of binding of anti-ICAM nanocarriers to human endothelial cells [2]: at some extent
- Leukocyte transmigration across endothelial cells (ICAM-1 on HUVEC): inhibit leukocyte transmigration

Molecule: FSPHSRT (phage display-derived peptide B9) [also tested as phage clone]
- Inhibition of binding of anti-ICAM nanocarriers to human endothelial cells [2]: ~80 % inhibition
- Leukocyte transmigration across endothelial cells (ICAM-1 on HUVEC): inhibit leukocyte transmigration

Molecule: NNQKIVNLKEKVAQLEA (fibrinogen-derived gamma-3) [γ3]
- Fibrin microemboli in circulation ([3]; 1 min after microemboli injection): remain in circulation
- Microemboli lodging in organs ([3]; kidneys and spleen, 15 min after injection): attenuating microemboli lodging in organs
- Effect of excess free competitor in the media on targeting of γ3/ASM carriers to endothelial cells [1]: suppressed

Molecule: ^125I-albumin: radiolabelled bovine serum albumin, standard for passive transport
- Papp A→B (Caco-2 monolayers; Caco-2): 0.03 ± 20000 ×10⁻⁶ cm/s

Molecule: NNQKLVNIKEKVAQIEA (fibrinogen-derived 3-gamma-3) [3γ3]
- Binding, internalization and lysosomal transport of carriers (HUVEC): similar

Molecule: GCKLCAQ (phage display-derived peptide D6) [also tested as phage clone]
- Leukocyte transmigration across endothelial cells (ICAM-1 on HUVEC): inhibit leukocyte transmigration

B1: free ASM: recombinant acid sphingomyelinase, an enzyme that binds to mannose-6-phosphate receptor (protein, UniProt P17405 47-631, looked up)
Sphingomyelin …: LALSDSRVLWAPAEAHPLSPQGHPARLHRIVPRLRDVFGWGNLTCPICKGLFTAINLGLKKEPNVARVGSVAIKLCNLLKIAPPAVCQSIVHLFEDDMVEVWRRSVLSPSEACGLLLGSTCGHWDIFSSWNISLPTVPKPPPKPPSPPAPGAPVSRILFLTDLHWDHDYLEGTDPDCADPLCCRRGSGLPPASRPGAGYWGEYSKCDLPLRTLESLLSGLGPAGPFDMVYWTGDIPAHDVWHQTRQDQLRALTTVTALVRKFLGPVPVYPAVGNHESTPVNSFPPPFIEGNHSSRWLYEAMAKAWEPWLPAEALRTLRIGGFYALSPYPGLRLISLNMNFCSRENFWLLINSTDPAGQLQWLVGELQAAEDRGDKVHIIGHIPPGHCLKSWSWNYYRIVARYENTLAAQFFGHTHVDEFEVFYDEETLSRPLAVAFLAPSATTYIGLNPGYRVYQIDGNYSGSSHVVLDHETYILNLTQANIPGAIPHWQLLYRARETYGLPNTLPTAWHNLVYRMRGDMQLFQTFWFLYHKGHPPSEPCGTPCRLATLCAQLSARADSPALCRHLMPDGSLPEAQSLWPRPLFC
- Lung accumulation, fold lower than ICAM-1 targeting (ICAM-1): 10 fold
